Assay results as given in US7183316B2, “Treatment of HPV caused diseases” (Cornell Research Foundation, Inc., priority 2001, dated 2007).

Legend:
HPV16 E7 mRNA [1] = test: EGF-mediated induction of HPV16 E7 mRNA in CaSki cells (Northern blot); format: cell-based; conditions: for EGF-mediated induction of HPV16 E7 (Northern blot, mRNA): Background Example 6: EGF 10 nanograms/ml, 100 μM NSAID, 25 μM 15d-PGJ2; for EGF-mediated induction of HPV16 E7 mRNA (Northern blot): Background Example 5: EGF 10 nanograms/ml, 50 or 100 μM sulindac sulfide, 15 μM ciglitazone, 15 μM 15d-PGJ2
Protocol: Epidermal growth factor at 10 nanograms/ml was added to CaSki cells (3×10^6 in a 10 cm diameter dish) together with 50 μM sulindac sulfide or 100 μM sulindac sulfide or 15 μM ciglitazone or 15 μM 15d-PGJ2.
Northern blot testing was carried out for HPV16 E7 mRNA.
Epidermal growth factor (EGF) at 10 nanograms/ml was incubated with CaSki cells (3×10^6 in a 10 cm diameter dish) and 100 μM ibuprofen, 100 μM piroxicam, 100 μM S-naproxen, 100 μM aspirin, 100 μM sulindac sulfone, 100 μM sulindac sulfide, 100 μM naproxen, 100 μM indomethacin, 100 μM flufenamic acid and for comparison purposes 25 μM 15d-PGJ2.

HPV16 E7 protein = test: Western blotting for HPV16 E7 protein in CaSki cells; format: cell-based; conditions: 24 hours incubation, concentration series in μM
Protocol: (§1) Ciglitazone was incubated with CaSki cells (prototypic cervical cancer cells known to be infected with HPV16). The number of CaSki cells was 3×10^6 in a 10 cm diameter dish. Incubation were carried out for 24 hours with 0, 1, 5, 10 and 20 μM ciglitazone.
(§2) Western blotting was carried out to determine levels of HPV16 E7 protein. […] Northern blotting was carried out to determine levels of HPV16 E7 mRNA. […] Nuclear run-off testing was carried out to determine level of gene transcription.
(§3) Celebrex™ at concentrations of 0, 0.1, 0.25, 0.5, 1.0, 2.5 and 5.0 μM was incubated with CaSki cell (3.0×10^6 in a 10 cm diameter dish) for 24 hours.

HPV16 [2] = test: Treatment of patient with cervical intraepithelial neoplasia; format: in vivo, human; conditions: 25 mg orally each day for six months
Protocol: A person presents to their gynecologist for evaluation. […] On biopsy, the patient is found to have cervical intraepithelial neoplasia. HPV16 is detected. Treatment with Vioxx™ 25 mg orally each day is begun and given for six months. […] The Vioxx™ is discontinued with no recurrence of cervical intraepithelial neoplasia.

HPV16 E6 mRNA = test: Northern blotting for HPV16 E6 mRNA in CaSki cells; format: cell-based; conditions: for levels of HPV16 E6 mRNA (Northern blot): CaSki cells, 24 hours incubation, concentration series in μM; for HPV16 E6 mRNA (Northern blot): Background Example 7: CaSki cells, 24 hours, curcumin 5 μM, resveratrol 15 μM, ciglitazone 20 μM, 15d-PGJ2 15 μM
Protocol: as §3
Curcumin (5 μM), resveratrol (15 μM), ciglitazone (20 μM) or 15d-PGJ2 (15 μM) were incubated with CaSki cells (3×10^6 in a 10 cm diameter dish) for 24 hours.
Northern blot testing was carried our for HPV16 E6 mRNA.

[3] = tested on: HPV mediated cutaneous warts; test: Topical treatment of patient with HPV mediated cutaneous warts; format: in vivo, human; conditions: ointment containing 5%, twice a day, three months
Source text: A child presents to a local dermatologist because of small cutaneous growths on the hand. A diagnosis of HPV mediated cutaneous warts is made. The patient is instructed to apply an ointment containing 5% rosiglitazone to the affected areas twice a day. […] The same results occur with an ointment containing 5% resveratrol instead of the ointment containing rosiglitazone.

HPV16 E7 mRNA [4] = test: Northern blotting for HPV16 E7 mRNA in CaSki cells; format: cell-based; conditions: 24 hours incubation, concentration series in μM
Protocol: as §1, §2
NS-398 at concentrations of 0, 10, 20, 40, 60, 100, 250 and 500 μM was incubated with CaSki cells (3×10^6 in a 10 cm diameter dish) for 24 hours.
Northern blotting was carried out to determine HPV16 E7 mRNA levels in each case.

[5] = tested on: HPV16 upstream regulatory region (URR); test: HPV16 upstream regulatory region luciferase reporter transfected into CaSki cells; format: cell-based; conditions: 24 hours, 0-25 μM, FIG. 1
Protocol: HPV16 upstream regulatory region (URR) ligated to luciferase gene transfected into CaSki cells is incubated for 24 hours with ciglitazone and with 15d-PGJ2 (in each case, concentration of 0 μM, 5 μM, 10 μM, 15 μM, 20 μM and 25 μM). […] Note that cells contain endogenous activator that drives expression of E7, and ciglitazone and 15d-PGJ2 are shown to inhibit the activation.

HPV16 [6] = test: Treatment of patient with metastasized cervical cancer; format: in vivo, human; conditions: 50 mg orally three times a day for 12 months plus radiation therapy after hysterectomy
Protocol: A person seeks gynecologic evaluation because of pelvic pain. On pelvic examination, a cervical mass is detected. […] The patient undergoes a hysterectomy along with resection of regional lymph nodes. […] HPV16 is detected. The patient is treated with a course of radiation therapy plus indomethacin 50 mg orally three times a day for 12 months. […] The indomethacin is discontinued.

O=C(O)c1ccccc1Nc1cccc(C(F)(F)F)c1 [flufenamic acid]
EGF-mediated induction of HPV16 E7 (Northern blot, mRNA) (HPV16 E7 mRNA [1]): inhibition

COc1ccc2cc([C@H](C)C(=O)O)ccc2c1 [naproxen]
EGF-mediated induction of HPV16 E7 (Northern blot, mRNA) (HPV16 E7 mRNA [1]): inhibition

COc1ccc(-n2nc(C(F)(F)F)cc2-c2ccc(Cl)cc2)cc1 [SC-560, 5-(4-chlorophenyl)-1-(4-methoxyphenyl)-3-(trifluoromethyl)-1H-pyrazole]
levels of HPV16 E7 protein (Western blot) (HPV16 E7 protein): suppression | cervical intraepithelial neoplasia on repeat biopsy (HPV16 [2]): no evidence of cervical intraepithelial neoplasia | levels of HPV16 E6 mRNA (Northern blot) (HPV16 E6 mRNA): suppression

CS(=O)(=O)c1ccc(-c2cc(Br)sc2-c2ccc(F)cc2)cc1 [DuP-697, 5-bromo-2-(4-fluorophenyl)-3-(4-(methylsulfonyl)phenyl)thiophene]
levels of HPV16 E7 protein (Western blot) (HPV16 E7 protein): suppression | levels of HPV16 E6 mRNA (Northern blot) (HPV16 E6 mRNA): suppression

CS(=O)(=O)c1ccc(-n2nc(C(F)(F)F)cc2-c2ccc(F)cc2)cc1 [SC-58125, 4-[5-(4-fluorophenyl)-3-(trifluoromethyl)-1H-pyrazol-1-yl]benzenemethylsulfone]
levels of HPV16 E7 protein (Western blot) (HPV16 E7 protein): suppression | levels of HPV16 E6 mRNA (Northern blot) (HPV16 E6 mRNA): suppression

CSc1ccc(/C=C2/C(C)=C(CC(=O)O)c3cc(F)ccc32)cc1 [sulindac sulfide]
EGF-mediated induction of HPV16 E7 mRNA (Northern blot) (HPV16 E7 mRNA [1]): inhibition | EGF-mediated induction of HPV16 E7 (Northern blot, mRNA) (HPV16 E7 mRNA [1]): inhibition

Cc1ccc(-c2cc(C(F)(F)F)nn2-c2ccc(S(N)(=O)=O)cc2)cc1 [Celebrex™, 4-[5-(4-methylphenyl)-3-(trifluoromethyl)-1H-pyrazol-1-yl]benzenesulfonamide]
levels of HPV16 E7 protein (Western blot) (HPV16 E7 protein): dose dependent suppression | levels of HPV16 E6 mRNA (Northern blot) (HPV16 E6 mRNA): dose dependent suppression

CC(C)Cc1ccc(C(C)C(=O)O)cc1 (stereo not shown) [ibuprofen]
EGF-mediated induction of HPV16 E7 (Northern blot, mRNA) (HPV16 E7 mRNA [1]): not

CC(=O)Oc1ccccc1C(=O)O [aspirin]
EGF-mediated induction of HPV16 E7 (Northern blot, mRNA) (HPV16 E7 mRNA [1]): not

CN1C(C(=O)Nc2ccccn2)=C(O)c2ccccc2S1(=O)=O [piroxicam]
EGF-mediated induction of HPV16 E7 (Northern blot, mRNA) (HPV16 E7 mRNA [1]): not

CS(=O)(=O)c1ccc(C2=C(c3ccccc3)C(=O)OC2)cc1 [Vioxx™, 3-(phenyl)-4-(4-(methylsulfonyl)phenyl)-2-(5H)-furanone]
cervical intraepithelial neoplasia on repeat biopsy (HPV16 [2]): no further evidence of cervical intraepithelial neoplasia

Oc1ccc(C=Cc2cc(O)cc(O)c2)cc1 [resveratrol]
cutaneous warts after topical treatment [3]: same results | HPV16 E6 mRNA (Northern blot) (HPV16 E6 mRNA): downregulation

NS(=O)(=O)c1ccc(-n2nc(C(F)(F)F)cc2-c2ccccc2)cc1 [4-[5-Phenyl-3-(trifluoromethyl)-1H-pyrazol-1-yl]benzenesulfonamide]
levels of HPV16 E7 protein (Western blot) (HPV16 E7 protein): suppression | levels of HPV16 E6 mRNA (Northern blot) (HPV16 E6 mRNA): suppression

COc1ccc2cc([C@H](C)C(=O)O)ccc2c1 [S-naproxen]
EGF-mediated induction of HPV16 E7 (Northern blot, mRNA) (HPV16 E7 mRNA [1]): not

CCCCCCCOC(=O)Cc1c(C)n(C(=O)c2ccc(Cl)cc2)c2ccc(OC)cc12 [Indomethacin heptyl ester]
levels of HPV16 E7 protein (Western blot) (HPV16 E7 protein): dose dependent suppression | levels of HPV16 E6 mRNA (Northern blot) (HPV16 E6 mRNA): dose dependent suppression

CC1=C(CC(=O)O)c2cc(F)ccc2/C1=C\c1ccc(S(C)(=O)=O)cc1 [sulindac sulfone]
EGF-mediated induction of HPV16 E7 (Northern blot, mRNA) (HPV16 E7 mRNA [1]): inhibition

COc1cc(/C=C/C(=O)CC(=O)/C=C/c2ccc(O)c(OC)c2)ccc1O [curcumin]
HPV16 E6 mRNA (Northern blot) (HPV16 E6 mRNA): downregulation

CS(=O)(=O)Nc1ccc([N+](=O)[O-])cc1OC1CCCCC1 [NS-398, N-[2-(cylohexyloxy)-4-nitrophenyl]-methanesulfonamide]
levels of HPV16 E7 mRNA (Northern blot) (HPV16 E7 mRNA [4]): dose dependent suppression

COc1ccc2c(c1)c(CC(=O)NCCc1ccccc1)c(C)n2C(=O)c1ccc(Cl)cc1 [N-(2-phenylethyl)-indomethacin amide]
levels of HPV16 E7 protein (Western blot) (HPV16 E7 protein): dose dependent suppression | levels of HPV16 E6 mRNA (Northern blot) (HPV16 E6 mRNA): dose dependent suppression

CCCCC/C=C/C=C1/C(=O)C=C[C@@H]1C/C=C\CCCC(=O)O [15d-PGJ2, 15-deoxy-Δ12,14-prostaglandin J2]
EGF-mediated induction of HPV16 E7 mRNA (Northern blot) (HPV16 E7 mRNA [1]): inhibition | EGF-mediated induction of HPV16 E7 (Northern blot, mRNA) (HPV16 E7 mRNA [1]): inhibition | luciferase activity of HPV16 upstream regulatory region [5]: dose dependent inhibition | HPV16 E6 mRNA (Northern blot) (HPV16 E6 mRNA): downregulation

NS(=O)(=O)c1ccc(-n2nc(C(F)(F)F)cc2-c2ccc(Cl)cc2)cc1 [SC-236]
levels of HPV16 E7 protein (Western blot) (HPV16 E7 protein): dose dependent suppression | levels of HPV16 E6 mRNA (Northern blot) (HPV16 E6 mRNA): dose dependent suppression

COc1ccc2c(c1)c(CC(=O)O)c(C)n2C(=O)c1ccc(Cl)cc1 [indomethacin]
EGF-mediated induction of HPV16 E7 (Northern blot, mRNA) (HPV16 E7 mRNA [1]): inhibition | repeat CAT scan, cervical cancer (HPV16 [6]): no evidence of disease
